According to patent publication US20260242390A1, “TOTAL SYNTHESES OF PORTIMINE A AND ANALOGUES THEREOF AS SMALL MOLECULE MODULATORS OF NMD3” (priority 2023, published 2026):

Tested on: Jurkat cells
Assay: Immunoblot of caspase 3 in Jurkat cells
Type: cell-based, human
Settings: for cell apoptosis, immunoblot of caspase 3: Jurkat cells, 12 hours at 10 nM; for caspase-3 cleavage in Jurkat cells: dose-dependent, immunoblot; for cell apoptosis / Caspase 3 activation: Jurkat 5M per well, 2 nM-1000 nM, 12 hours
From the text: FIG. 1. Portimine A is non-toxic to primary human PBMCs. Portimine A and its functional analogs show stereo-selective acute toxicity in cancer cells. […] (B) Structure of portimine related analogs: phenyl-portimine A (Ph-PA, 36) and epi-portimine A (ePA, 38). Structure of fully functionalized portimine A-based epimeric probe pair: portimine A-diazirine-alkyne (PA-DA, 35-2) and epi-portimine A-diazirine-alkyne (ePA-DA, 35-1). (C) Cell viability analysis of portimine A and analogs. Jurkat cells were treated with increasing concentrations of portimine A and analogs for 24 hours. All presented data as mean of biological replicated experiments (n=3). […] Jurkat cells were treated with portimine A or analogs for 12 hours at 10 nM.
FIG. 3. Initial SAR studies: Assessing activity of PAL functionalized PTMA analogs. […] (A) PA and Ph-PA show less toxic to healthy PBMCs compared to Jurkat cells. […] (B) Immunoblot of caspase-3 in Jurkat and PBMCs with indicated conditions.
FIG. 5. […] (I, J) Confirmation of PA-DA engagement of NMD3 in Jurkat and HCC1806 cells. […] Treatment condition: Jurkat (5M per well). Portimine A concentration: 2 nM-1000 nM; In total treat cell for 12 hours.
• 1) Portimine A and its functional analogs show stereo-selective acute toxicity in cancer cells (FIG. 1). […] (B) Structure of portimine related analogs: phenyl-portimine A (Ph-PA, 36) and epi-portimine A (ePA, 38). Structure of fully functionalized portimine A-based epimeric probe pair: portimine A-diazirine-alkyne (PA-DA, 35-2) and epi-portimine A-diazirine-alkyne (ePA-DA, 35-1). (C) Cell viability analysis of portimine A and analogs. Jurkat cells were treated with increasing concentrations of portimine A and analogs for 24 hours. All presented data as mean of biological replicated experiments (n=3). […] Jurkat cells were treated with portimine A or analogs for 12 hours at 10 nM. […] Structurally related negative control ePA and PB are non-toxic in all cell types in the current concentrate range. PBMCs (25k per well), Jurkat (10k per well). […] Cell cycle analysis in Jurkat cells (FIG. 2). Jurkat cells were treated with 10 nM of indicated compounds for 24 hours, and propodium iodide was used to identify different stages of cells by flow cytometry. […] (A) PA and Ph-PA show less toxic to healthy PBMCs compared to Jurkat cells. […] (B) Immunoblot of caspase-3 in Jurkat and PBMCs with indicated conditions. […] (A) Pharmacokinetic studies of mouse intraperitoneal (i.p.) and oral (p.o.) administration for portimine (n=3). […] Impact of PA [0.3 or 1 mg/kg intraperitoneally] on MC38 tumor growth in WT mice (n=6). (C) Kaplan-Myer survival curve of WT MC38 tumor-bearing mice (n=6) after treatment with PA as described in (D). Mice were euthanized when tumor area exceeded 2000 mm^3. Statistical analysis was performed using ANOVA analysis followed by multiple comparisons test, * p≤0.05. Treatment condition: Jurkat (60 M per condition); PA-DA/ePA-DA concentration: 0.5 uM, PA or ePA: 5 uM; Incubate with probe with or without competitors (PA, ePA) for 30 min; UV irradiated for 20 min. (0.5 uM PA-DA add a no-UV condition), Standard pulldown & biotin-enrichment and western blot analysis (Elute condition: 2× sample buffer+500 uM biotin, boil for 20 mins); Primary antibody NMD3 (ProteinTech, 1:150), Actin (BioRad, 1:10000). […] Chemical proteomic profiling with PA-DA in Jurkat cells (A, B, C, G) and HCC1806 cells (D, E, F, H) show NMD3 is the primary target candidate of portimine A. Volcano plot in panels A and D show protein competition in cells treated with active photoaffinity probe PA-DA (500 nM) and DMSO or the active competitor portimine A (PA, […]), dotted lines indicate threshold of fold change <4, p-value>0.05. […] (I, J) Confirmation of PA-DA engagement of NMD3 in Jurkat and HCC1806 cells. […] Treatment condition: Jurkat (5M per well). Portimine A concentration: 2 nM-1000 nM; In total treat cell for 12 hours. […] Protein degradation of p53, Mcl1, Bid, Bim, Noxa can be rescued by MG132 or Epoxomicin. […]

Row | Structure (SMILES) | cell apoptosis, immunoblot of caspase 3 | caspase-3 cleavage in Jurkat cells | cell apoptosis / Caspase 3 activation
1 | CC1C[C@@H](O)C(=O)[C@H]2O[C@]3(CC[C@@H]1O3)CC(O)C1=NCC[C@@]13CCC(c1ccccc1)=C[C@H]23 (stereo partly shown) [Ph-PA, phenyl-portimine A] | induce cell apoptosis | – | –
2 | C#CCCC1(CCNC(=O)c2ccc(C3=C[C@@H]4[C@@H]5O[C@]6(CC[C@H](O6)C(C)C[C@@H](O)C5=O)CC(O)C5=NCC[C@@]54CC3)cc2)N=N1 (stereo partly shown) [PA-DA, portimine A-diazirine-alkyne] | induce cell apoptosis | induced caspase-3 cleavage in a dose-dependent manner | –
3 | C=CC1=C[C@@H]2[C@@H]3OC4(CC[C@H](O4)C(C)C[C@@H](O)C3=O)CC(=O)C3=NCC[C@@]32CC1 (stereo partly shown) [PB, portimine B] | do not | – | –
4 | C=CC1=C[C@@H]2[C@@H]3O[C@]4(CC[C@H](O4)C(C)C[C@@H](O)C3=O)CC(O)C3=NCC[C@@]32CC1 (stereo partly shown) [PA, portimine A] | induce cell apoptosis | induced caspase-3 cleavage in a dose-dependent manner | causes cell apoptosis in dose-dependent manner
5 | C#CCCC1(CCNC(=O)c2ccc(C3=C[C@@H]4[C@@H]5O[C@]6(CC[C@H](O6)C(C)C[C@@H](O)C5=O)C[C@@H](O)C5=NCC[C@@]54CC3)cc2)N=N1 (stereo partly drawn) [ePA-DA, epi-portimine A-diazirine-alkyne] | do not | – | –
6 | C=CC1=C[C@@H]2[C@@H]3O[C@]4(CC[C@H](O4)C(C)C[C@@H](O)C3=O)C[C@@H](O)C3=NCC[C@@]32CC1 (stereo partly drawn) [ePA, epi-portimine A] | do not | – | does not show significant Caspase 3 activation
